Measurements: patent US7700593B2, “Imidazo- and triazolo-pyridine compounds and methods of use thereof” (Amgen Inc., priority 2006, dated 2010)

Key:
[1] = target: p38α (Homo sapiens, UniProt Q16539); assay: p38 in-vitro HTRF enzyme assay; type: biochemical; details: IC50 value ranges
Experimental: p38 In-Vitro HTRF Enzyme Assay
The compounds of the invention can be tested for their respective affinities for the p38 protein using a conventional p38 in-vitro enzyme activity assay. For example, a P38-alpha HTRF assay may be used to measure the protein's in-vitro phosphorylation activity, and the data analyzed using time resolved fluorimetry techniques (FRET). A p38 HTRF assay is as follows. The kinase reaction buffer for p38α, p38β, p38δ and p38γ HTRF assays consists of 50 mM Tris-pH 7.5, 5 mM MgCl2, 0.1 mg/mL BSA, 100 μM Na3VO4 and 0.5 mM DTT. The HTRF detection buffer contains 100 mM HEPES-pH 7.5, 100 mM NaCl, 0.1% BSA, 0.05% Tween-20, and 10 mM EDTA. Each compound was dissolved in 100% DMSO and serially diluted (3 fold, 10 point) in a polypropylene 96-well microtiter plate (drug plate). The final starting concentration of the compound in the p38α and p38β enzymatic assays was about 1 μM. The final starting concentration of each compound in the p38δ and p38γ enzymatic assays was about 10 μM. The p38α, p38β, p38δ and p38γ kinase reactions were carried out in a polypropylene 96-well black round bottom assay plate in total volume of 30 μL kinase reaction buffer. Appropriate concentration of purified and activated enzyme (recombinant human) was mixed with indicated concentration of ATP and 100 nM GST-ATF2-Avitag, in the presence or absence (HI control) of each compound. In the absence of enzyme, the background was measured as LO control. HI controls and LO controls contained only DMSO. The reaction was allowed to incubate for 1 hour at RT. […] After 60 minutes incubation at room temperature, the assay plate was read in a Discovery Plate Reader. The wells were excited with coherent 320 nm light and the ratio of delayed ([…] post excitation) emissions at […] (native europium fluorescence) and 665 nm (europium fluorescence transferred to allophycocyanin—an index of substrate phosphorylation) was determined (Park et al, 1999). The resulting data was analyzed by taking the proportion of substrate phosphorylated in the kinase reaction in the presence of each individual compound and comparing it with that phosphorylated in the presence of DMSO vehicle alone (HI control). The data was calculated using the formula: % control (POC)=(compound−average LO)/(average HI−average LO)*100. Data (consisting of POC and inhibitor concentration in μM) was fitted to a 4-parameter equation (y=A+((B−A)/(1+((x/C)^D))), where A is the minimum y (POC) value, B is the maximum y (POC), C is the x (compound concentration) at the point of inflection and D is the slope factor, using a Levenburg-Marquardt non-linear regression algorithm. The inhibition constant (Ki) of the inhibitor was estimated from the IC50 (compound concentration at the point of inflection C) using the Cheng-Prussof equation: Ki=IC50/(1+S/Km), where S is the ATP substrate concentration, and Km is the Michaelis constant for ATP as determined experimentally. All results were expressed as the mean±the standard error of the mean. Data acquisition and non-linear regression algorithms were performed using Activity Base v5.2 and XLfit software v4.1 respectively. Additional assay information may be obtained in Park Y W, Cummings R T, Wu L, et al. Homogeneous Proximity Tyrosine Kinase Assays Scintillation Proximity Assay versus Homogeneous Time-Resolved Fluorescence. Analytical Biochemistry. 1999; 269: 94-104.

[2] = system: THP1 cells; assay: Lipopolysaccharide-activated THP1 cell TNF production assay; type: cell-based, human; details: Homo sapiens, THP-1; LPS-induced TNF-α production in THP1 cells
Experimental: Lipopolysaccharide-Activated THP1 Cell TNF Production Assay
THP1 cells are resuspended in fresh THP1 media (RPMI 1640, 10% heat-inactivated FBS, 1×PGS, 1×NEAA, plus 30 μM βME) at a concentration of 1E6/mL. One hundred microliters of cells per well are plated in a polystyrene 96-well tissue culture. One microgram per mL of bacterial LPS is prepared in THP1 media and is transferred to the wells. Test compounds are dissolved in 100% DMSO and are serially diluted 3-fold in a polypropylene 96-well microtiter plate (drug plate). HI control and LO control wells contain only DMSO. One microliter of test compound from the drug plate followed by 10 μL of LPS are transferred to the cell plate. The treated cells are induced to synthesize and secrete TNF-α at 37° C. for 3 h. Forty microliters of conditioned media are transferred to a 96-well polypropylene plate containing 110 μL of ECL buffer (50 mM Tris-HCl pH 8.0, 100 mM NaCl, 0.05% Tween 20, 0.05% NaN3 and 1% FBS) supplemented with 0.44 nM MAB610 monoclonal Ab (R&D Systems), 0.34 nM ruthenylated AF210NA polyclonal Ab (R&D Systems) and 44 μg/mL sheep anti-mouse M280 Dynabeads (Dynal). After a 2 h incubation at room temperature with shaking, the reaction is read on the ECL M8 Instrument (IGEN Inc.). A low voltage is applied to the ruthenylated TNF-α immune complexes, which in the presence of TPA (the active component in Origlo), results in a cyclical redox reaction generating light at […]. The amount of secreted TNF-α in the presence of compound compared with that in the presence of DMSO vehicle alone (HI control) is calculated using the formula: % control (POC)=(cpd−average LO)/(average HI−average LO)*100. Data (consisting of POC and inhibitor concentration in μM) is fitted to a 4-parameter equation (y=A+((B−A)/(1+((x/C)^D))), where A is the minimum y (POC) value, B is the maximum y (POC), C is the x (cpd concentration) at the point of inflection and D is the slope factor) using a Levenburg-Marquardt non-linear regression algorithm.

[3] = system: monocytes; assay: Lipopolysaccharide-activated monocyte TNF production assay (LPS induced TNF release); type: cell-based, human; details: Homo sapiens, Monocyte; LPS induced TNF release from monocytes; read-out: LPS induced TNFa
Experimental: Lipopolysaccharide-Activated Monocyte TNF Production Assay
Test compounds were evaluated in vitro for the ability to inhibit the production of TNF by monocytes activated with bacterial lipopolysaccharide (LPS). Fresh residual source leukocytes (a byproduct of plateletpheresis) were obtained from a local blood bank, and peripheral blood mononuclear cells (PBMCs) were isolated by density gradient centrifugation on Ficol-Paque Plus (Pharmacia). PBMCs were suspended at 2×10^6/mL in DMEM supplemented to contain 2% FCS, 10 mM, 0.3 mg/mL […], 100 U/mL penicillin G and […] streptomycin sulfate (complete media). Cells were plated into Falcon flat bottom, 96 well culture plates (200 μL/well) and cultured overnight at 37° C. and 6% CO2. Non-adherent cells were removed by washing with 200 μl/well of fresh medium. Wells containing adherent cells (˜70% monocytes) were replenished with 100 μL of fresh medium.
Preparation of Test Compound Stock Solutions
Test compounds were dissolved in […]. Compound stock solutions were prepared to an initial concentration of […]. Stocks were diluted initially to […] in complete media. Nine two-fold serial dilutions of each compound were then prepared in complete medium.
Treatment of Cells with Test Compounds and Activation of TNF Production with Lipopolysaccharide
One hundred microliters of each test compound dilution were added to microtiter wells containing adherent monocytes and 100 μL complete medium. Monocytes were cultured with test compounds for 60 min at which time 25 μL of complete medium containing 30 ng/mL lipopolysaccharide from E. coli K532 were added to each well. Cells were cultured an additional 4 hrs. Culture supernatants were then removed and TNF presence in the supernatants was quantified using an ELISA.
Flat bottom, 96 well Corning High Binding ELISA plates were coated overnight (4° C.) with 150 μL/well of 3 μg/mL murine anti-human TNF-α MAb (R&D Systems #MAB210). Wells were then blocked for 1 h at room temperature with 200 μL/well of CaCl2-free ELISA buffer supplemented to contain 20 mg/mL BSA (standard ELISA buffer: […], 150 mM NaCl, 2 mM CaCl2, 0.15 mM thimerosal, pH 7.4). Plates were washed and replenished with 100 μL of test supernatants (diluted 1:3) or standards. Standards consisted of eleven 1.5-fold serial dilutions from a stock of 1 ng/mL recombinant human TNF (R&D Systems). Plates were incubated at room temperature for 1 h on orbital shaker (300 rpm), washed and replenished with 100 μL/well of 0.5 μg/mL goat anti-human TNF-α (R&D systems #AB-210-NA) biotinylated at a 4:1 ratio. Plates were incubated for 40 min, washed and replenished with 100 μL/well of alkaline phosphatase-conjugated streptavidin (Jackson ImmunoResearch #016-050-084) at 0.02 μg/mL. Plates were incubated 30 min, washed and replenished with 200 μL/well of 1 mg/mL of p-nitrophenyl phosphate.
Standard curve data were fit to a second order polynomial and unknown TNF-α concentrations determined from their OD by solving this equation for concentration. TNF concentrations were then plotted vs. test compound concentration using a second order polynomial. This equation was then used to calculate the concentration of test compounds causing a 50% reduction in TNF production.

Sequence of p38α (Q16539 whole entry): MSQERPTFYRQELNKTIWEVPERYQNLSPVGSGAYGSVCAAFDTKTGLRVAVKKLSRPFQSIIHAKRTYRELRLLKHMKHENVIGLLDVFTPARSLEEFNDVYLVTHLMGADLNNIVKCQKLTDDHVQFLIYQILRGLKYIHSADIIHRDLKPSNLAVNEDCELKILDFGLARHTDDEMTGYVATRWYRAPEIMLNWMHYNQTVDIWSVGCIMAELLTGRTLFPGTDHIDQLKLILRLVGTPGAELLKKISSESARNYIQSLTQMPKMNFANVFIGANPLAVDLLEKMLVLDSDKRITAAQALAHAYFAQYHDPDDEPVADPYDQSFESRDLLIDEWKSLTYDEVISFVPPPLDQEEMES

Structure (SMILES)	IC50 [1] [µM]	IC50 [2] [µM]	IC50 [3] [µM]
Cc1ccc(C(=O)NC2CC2)cc1-c1ccn2c(-c3ccncc3Cl)nnc2c1 [Example 80, 3-(3-(3-chloro-4-pyridinyl)[1,2,4]triazolo[4,3-a]pyridin-7-yl)-N-cyclopropyl-4-methylbenzamide]	< 0.025	< 0.025	0.025 to 0.1
Cc1ccc(C(N)=O)cc1-c1ccn2c(N)nnc2c1 [Example 24, 3-(3-amino[1,2,4]triazolo[4,3-a]pyridin-7-yl)-4-methylbenzamide]	1 to 5	1 to 5	1 to 5
Cc1ccc(C(=O)NC2CC2)cc1-c1cc(C)n2c(-c3ccccc3Cl)nnc2c1 [Example 6, 3-(3-(2-chlorophenyl)-5-methyl[1,2,4]triazolo[4,3-a]pyridin-7-yl)-N-cyclopropyl-4-methylbenzamide]	< 0.025	< 0.025	0.025 to 0.1
Cc1ccc(C(=O)Nc2ccnn2C)cc1-c1ccn2c(-c3cccnc3C)nnc2c1 [Example 33, 4-methyl-N-(1-methyl-1H-pyrazol-5-yl)-3-(3-(2-methyl-3-pyridinyl)[1,2,4]triazolo[4,3-a]pyridin-7-yl)benzamide]	0.025 to 0.1	0.1 to 0.25	0.25 to 1
Cc1ccc(C(=O)Nc2ccnn2C)cc1-c1ccn2c(-c3cc(F)c(F)cc3Cl)nnc2c1 [Example 49, 3-(3-(2-chloro-4,5-difluorophenyl)[1,2,4]triazolo[4,3-a]pyridin-7-yl)-4-methyl-N-(1-methyl-1H-pyrazol-5-yl)benzamide]	< 0.025	0.025 to 0.1	0.025 to 0.1
Cc1ccc(C(=O)NC2CC2)cc1-c1ccn2c(N3CCCCC3)nnc2c1 [Example 99, N-cyclopropyl-4-methyl-3-(3-(1-piperidinyl)[1,2,4]triazolo[4,3-a]pyridin-7-yl)benzamide]	< 0.025	0.025 to 0.1	0.25 to 1

The remaining lines, values ahead:

IC50 [1] [µM]	IC50 [2] [µM]	IC50 [3] [µM]	Structure (SMILES)
0.025 to 0.1	0.025 to 0.1	0.1 to 0.25	Cc1ccc(C(=O)NC2CC2)cc1-c1ccn2c(-c3cccnc3C)nnc2c1 [Example 34, N-cyclopropyl-4-methyl-3-(3-(2-methyl-3-pyridinyl)[1,2,4]triazolo[4,3-a]pyridin-7-yl)benzamide]
< 0.025	0.025 to 0.1	0.1 to 0.25	Cc1ccc(C(=O)NC2CC2)cc1-c1ccn2c(-c3ccccc3C)nnc2c1 [Example 32, N-cyclopropyl-4-methyl-3-(3-(2-methylphenyl)[1,2,4]triazolo[4,3-a]pyridin-7-yl)benzamide]
< 0.025	< 0.025	< 0.025	Cc1c(F)cc(C(=O)NC2CC2)cc1-c1ccn2c(C(C)(C)C)nnc2c1 [Example 50, N-cyclopropyl-3-(3-(1,1-dimethylethyl)[1,2,4]triazolo[4,3-a]pyridin-7-yl)-5-fluoro-4-methylbenzamide]
0.1 to 0.25	0.1 to 0.25	0.1 to 0.25	Cc1ccc(C(=O)NC2CC2)cc1-c1ccn2c(-c3cccnc3)nnc2c1 [Example 29, N-cyclopropyl-4-methyl-3-(3-(3-pyridinyl)[1,2,4]triazolo[4,3-a]pyridin-7-yl)benzamide]
< 0.025	0.025 to 0.1	0.1 to 0.25	Cc1ccc(C(=O)NC2CC2)cc1-c1ccn2c(-c3ccc(F)cc3Cl)nnc2c1 [Example 42, 3-(3-(2-chloro-4-fluorophenyl)[1,2,4]triazolo[4,3-a]pyridin-7-yl)-N-cyclopropyl-4-methylbenzamide]
< 0.025	< 0.025	0.025 to 0.1	Cc1ccc(C(=O)NC2CC2)cc1-c1ccn2c(-c3ccccc3Cl)nnc2c1 [Example 10, 3-(3-(2-chlorophenyl)[1,2,4]triazolo[4,3-a]pyridin-7-yl)-N-cyclopropyl-4-methylbenzamide]
0.025 to 0.1	0.25 to 1	0.1 to 0.25	Cc1ccc(C(=O)NC2CC2)cc1-c1ccn2c(-c3cccc(S(C)(=O)=O)c3)nnc2c1 [Example 18, N-cyclopropyl-4-methyl-3-(3-(3-(methylsulfonyl)phenyl)[1,2,4]triazolo[4,3-a]pyridin-7-yl)benzamide]
